Laboratory results reported in the supplement of paper PMC10307832.

How the values were obtained:
Test in all cases: relative viability (nuclei count vs DMSO), 5 days (fraction); higher = more cells survive
KIN001-266 + Luminespib = compound: CCN1CCC(CC1)N2C=C(N=N2)CNC3=CC4=C(C(=CN=C4C(=C3)Cl)C#N)NC5=CC(=C(C=C5)F)Cl [KIN001-266] + CCNC(=O)c1noc(-c2cc(C(C)C)c(O)cc2O)c1-c1ccc(CN2CCOCC2)cc1 [Luminespib] (partner 0.01 µM)
Outline: (§1)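 Lung cancer cell lines, seeded in 1536-well plates, were treated the following day by pin tool with a single drug or with five library-drug doses (not always all listed) in √10 steps on top of a fixed anchor-drug dose. Cells were fixed and nuclei stained in one step after 5 days, and nuclei were counted. Relative viability is the nuclei count for treated wells divided by that for vehicle wells, reported as medians of duplicate plates.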

KIN001-266 + Foretinib = compound: CCN1CCC(CC1)N2C=C(N=N2)CNC3=CC4=C(C(=CN=C4C(=C3)Cl)C#N)NC5=CC(=C(C=C5)F)Cl [KIN001-266] + COc1cc2c(Oc3ccc(NC(=O)C4(C(=O)Nc5ccc(F)cc5)CC4)cc3F)ccnc2cc1OCCCN1CCOCC1 [Foretinib] (partner 0.25 µM)
Outline: as §1

KIN001-266 + Tozasertib = compound: CCN1CCC(CC1)N2C=C(N=N2)CNC3=CC4=C(C(=CN=C4C(=C3)Cl)C#N)NC5=CC(=C(C=C5)F)Cl [KIN001-266] + Cc1cc(Nc2cc(N3CCN(C)CC3)nc(Sc3ccc(NC(=O)C4CC4)cc3)n2)n[nH]1 [Tozasertib] (partner 0.1 µM)
Outline: as §1

KIN001-266 + AZD7762 = compound: CCN1CCC(CC1)N2C=C(N=N2)CNC3=CC4=C(C(=CN=C4C(=C3)Cl)C#N)NC5=CC(=C(C=C5)F)Cl [KIN001-266] + NC(=O)Nc1cc(-c2cccc(F)c2)sc1C(=O)N[C@H]1CCCNC1 [AZD7762] (partner 0.2 µM)
Outline: as §1

Row | Cell Line | relative viability (KIN001-266 + Luminespib; first compound 0.08 µM) | relative viability (KIN001-266 + Luminespib; first compound 0.253 µM) | relative viability (KIN001-266 + Luminespib; first compound 0.8 µM) | relative viability (KIN001-266 + Luminespib; first compound 2.53 µM) | relative viability (KIN001-266 + Luminespib; first compound 8 µM) | relative viability (KIN001-266 + Foretinib; first compound 0.08 µM) | relative viability (KIN001-266 + Foretinib; first compound 0.253 µM) | relative viability (KIN001-266 + Foretinib; first compound 0.8 µM) | relative viability (KIN001-266 + Foretinib; first compound 2.53 µM) | relative viability (KIN001-266 + Foretinib; first compound 8 µM) | relative viability (KIN001-266 + Tozasertib; first compound 0.08 µM) | relative viability (KIN001-266 + Tozasertib; first compound 0.253 µM) | relative viability (KIN001-266 + Tozasertib; first compound 0.8 µM) | relative viability (KIN001-266 + Tozasertib; first compound 2.53 µM) | relative viability (KIN001-266 + Tozasertib; first compound 8 µM) | relative viability (KIN001-266 + AZD7762; first compound 0.08 µM) | relative viability (KIN001-266 + AZD7762; first compound 0.253 µM) | relative viability (KIN001-266 + AZD7762; first compound 0.8 µM) | relative viability (KIN001-266 + AZD7762; first compound 2.53 µM) | relative viability (KIN001-266 + AZD7762; first compound 8 µM)
1 | NCI-H1355 | 0.741 | 0.642 | 0.811 | 0.691 | 0.722 | 0.922 | 0.956 | 0.924 | 0.918 | 0.88 | 0.62 | 0.593 | 0.515 | 0.513 | 0.506 | 0.771 | 0.734 | 0.73 | 0.556 | 0.521
2 | NCI-H1395 | 0.829 | 0.76 | 0.619 | 0.545 | 0.659 | 0.984 | 0.93 | 0.952 | 0.939 | 0.914 | 0.808 | 0.779 | 0.786 | 0.724 | 0.677 | 0.404 | 0.453 | 0.399 | 0.375 | 0.391
3 | NCI-H1437 | 1.08 | 1.13 | 1.1 | 1.09 | 0.854 | 1.21 | 1.28 | 1.26 | 1.35 | 1.04 | 0.425 | 0.366 | 0.393 | 0.38 | 0.264 | 1.12 | 1.16 | 1.12 | 1.1 | 0.963
4 | NCI-H1651 | 0.845 | 0.936 | 0.753 | 0.861 | 0.593 | 0.805 | 0.71 | 0.774 | 0.757 | 0.731 | 0.782 | 0.591 | 0.51 | 0.78 | 0.396 | 0.46 | 0.44 | 0.376 | 0.328 | 0.49
5 | NCI-H1666 | 0.982 | 0.993 | 1.02 | 0.951 | 0.923 | 0.954 | 0.95 | 0.938 | 0.92 | 0.892 | 0.586 | 0.642 | 0.605 | 0.572 | 0.486 | 0.921 | 0.799 | 0.744 | 0.826 | 0.767
6 | NCI-H1734 | 0.196 | 0.195 | 0.191 | 0.19 | 0.193 | 0.951 | 0.801 | 0.704 | 0.813 | 0.798 | 0.256 | 0.295 | 0.279 | 0.232 | 0.243 | 0.566 | 0.635 | 0.438 | 0.631 | 0.461
7 | NCI-H1755 | 0.339 | 0.799 | 0.389 | 0.445 | 0.418 | 0.96 | 0.913 | 0.894 | 0.862 | 0.83 | 0.629 | 0.541 | 0.583 | 0.525 | 0.522 | 0.408 | 0.492 | 0.425 | 0.452 | 0.43
8 | NCI-H1793 | 0.231 | 0.436 | 0.171 | 0.194 | 0.196 | 0.598 | 0.812 | 0.718 | 0.883 | 0.705 | 0.325 | 0.416 | 0.303 | 0.323 | 0.272 | 0.482 | 0.541 |  | 0.276 | 0.376
